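Dose response: 5 concentrations. Exposure: 48 h. Format: 96-well plates. Endpoint: linear interpolation; highest concentration if not reached. At the GI50, growth is halved.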 Calls of active or inactive are those of the source. Cut-off read from the data, not from the text of the source: active = GI50 up to about 1.1 µM and inactive = higher.
Key:
Experiment in all cases: NCI-60 cell line screen, 48 h
786-0 = test system: 786-0
A498 = test system: A498
A549 = test system: A549
ACHN = test system: ACHN
CAKI-1 = test system: CAKI-1
CCRF-CEM = test system: CCRF-CEM
COLO 205 = test system: COLO 205
DLD-1 = test system: DLD-1
DMS-114 = test system: DMS-114
DMS-273 = test system: DMS-273
EKVX = test system: EKVX
HCC 2998 = test system: HCC 2998
HCT-116 = test system: HCT-116
HCT-15 = test system: HCT-15
HL-60 = test system: HL-60
HOP-62 = test system: HOP-62
HOP-92 = test system: HOP-92
HT-29 = test system: HT-29
IGROV-1 = test system: IGROV-1
K562 = test system: K562
KM-20L2 = test system: KM-20L2
KM12 = test system: KM12
LOX IMVI = test system: LOX IMVI
LXFL 529 = test system: LXFL 529
M14 = test system: M14
M19-MEL = test system: M19-MEL
MOLT-4 = test system: MOLT-4
Malme-3M = test system: Malme-3M
NCI-H226 = test system: NCI-H226
NCI-H23 = test system: NCI-H23
NCI-H460 = test system: NCI-H460
NCI-H522 = test system: NCI-H522
OVCAR-3 = test system: OVCAR-3
OVCAR-4 = test system: OVCAR-4
OVCAR-5 = test system: OVCAR-5
OVCAR-8 = test system: OVCAR-8
RPMI-8226 = test system: RPMI-8226
RXF 393 = test system: RXF 393
RXF 631 = test system: RXF 631
SF-268 = test system: SF-268
SF-295 = test system: SF-295
SF-539 = test system: SF-539
SK-MEL-28 = test system: SK-MEL-28
SK-MEL-2 = test system: SK-MEL-2
SK-OV-3 = test system: SK-OV-3
SN12C = test system: SN12C
SNB-19 = test system: SNB-19
SNB-75 = test system: SNB-75
SNB-78 = test system: SNB-78
SW-620 = test system: SW-620
TK-10 = test system: TK-10
U-251 = test system: U-251
UACC-257 = test system: UACC-257
UACC-62 = test system: UACC-62
UO-31 = test system: UO-31
XF498 = test system: XF498

O=CN/C=C/c1ccc(O)c(O)c1
GI50 (786-0): > 100 µM (inactive) | GI50 (A498): > 100 µM (inactive) | GI50 (A549): > 100 µM (inactive) | GI50 (ACHN): > 100 µM (inactive) | GI50 (CAKI-1): > 100 µM (inactive) | GI50 (CCRF-CEM): > 100 µM (inactive) | GI50 (COLO 205): > 100 µM (inactive) | GI50 (DLD-1): > 100 µM (inactive) | GI50 (DMS-114): > 100 µM (inactive) | GI50 (DMS-273): > 100 µM (inactive) | GI50 (EKVX): > 100 µM (inactive) | GI50 (HCC 2998): > 100 µM (inactive) | GI50 (HCT-116): > 100 µM (inactive) | GI50 (HCT-15): > 100 µM | GI50 (HL-60): 55 µM (inactive) | GI50 (HOP-62): > 100 µM (inactive) | GI50 (HOP-92): > 100 µM (inactive) | GI50 (HT-29): > 100 µM (inactive) | GI50 (IGROV-1): > 100 µM (inactive) | GI50 (K562): > 100 µM (inactive) | GI50 (KM-20L2): > 100 µM (inactive) | GI50 (KM12): > 100 µM (inactive) | GI50 (LOX IMVI): > 100 µM (inactive) | GI50 (LXFL 529): > 100 µM (inactive) | GI50 (M14): > 100 µM (inactive) | GI50 (M19-MEL): > 100 µM (inactive) | GI50 (MOLT-4): > 100 µM (inactive) | GI50 (Malme-3M): > 100 µM (inactive) | GI50 (NCI-H226): > 100 µM (inactive) | GI50 (NCI-H23): > 100 µM (inactive) | GI50 (NCI-H460): > 100 µM (inactive) | GI50 (NCI-H522): 52.1 µM (inactive) | GI50 (OVCAR-3): > 100 µM (inactive) | GI50 (OVCAR-4): > 100 µM (inactive) | GI50 (OVCAR-5): > 100 µM (inactive) | GI50 (OVCAR-8): > 100 µM (inactive) | GI50 (RPMI-8226): > 100 µM (inactive) | GI50 (RXF 393): > 100 µM (inactive) | GI50 (RXF 631): > 100 µM (inactive) | GI50 (SF-268): > 100 µM (inactive) | GI50 (SF-295): > 100 µM (inactive) | GI50 (SF-539): > 100 µM (inactive) | GI50 (SK-MEL-28): > 100 µM (inactive) | GI50 (SK-MEL-2): > 100 µM (inactive) | GI50 (SK-OV-3): > 100 µM (inactive) | GI50 (SN12C): > 100 µM (inactive) | GI50 (SNB-19): > 100 µM (inactive) | GI50 (SNB-75): 59.8 µM (inactive) | GI50 (SNB-78): > 100 µM (inactive) | GI50 (SW-620): > 100 µM (inactive) | GI50 (TK-10): > 100 µM (inactive) | GI50 (U-251): > 100 µM (inactive) | GI50 (UACC-257): > 100 µM (inactive) | GI50 (UACC-62): > 100 µM (inactive) | GI50 (UO-31): > 100 µM (inactive) | GI50 (XF498): > 100 µM (inactive)
